Patent publication US6001880A, “Alkylenediamine derivative, anti-ulcer drug, and antibacterial drug” (Shiseido Co., Ltd., priority 1997, dated 1999)

What was measured:
[1] = test system: isolated gastric fundic gland; test: CAP: Acid Secretion Inhibition Test In Vitro ([14C]-aminopyrine uptake); format: cell-based, rabbit (male Japanese White); conditions: Oryctolagus cuniculus; final concentration 10^-5 M; histamine 10^-5 M stimulation; read-out: CAP: acid secretion inhibitory rate
Summary of the method: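 Collagenase-isolated rabbit gastric fundic glands (1.6×10^6 cells/ml) were stimulated with 10^-5 M histamine in the presence of test compound and [14C]-aminopyrine, then shaken 40 min at 37 °C. Pellet versus supernatant radioactivity, corrected with a 20 mM NaSCN sample, gives specific aminopyrine accumulation as the acid-secretion index; duplicates.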

[2] = test system: Helicobacter pyroli (HP NCTC 11637); test: AHP: Antibacterial Activity Test Against Helicobacter pyroli (agar dilution); format: cell-based, Helicobacter pyroli NCTC 11637
Procedure: AHP: Antibacterial Activity Test Against Helicobacter pyroli The minimum inhibitory concentration (MIC) against Helicobacter pyroli (microacrophilic gram-negative bacterium which is supposed to deeply involve in pathogenesis, relapse, and recrudescence of ulcer, referred to as "HP" in the following) is measured so as to find out compounds which have antibacterial activity against Helicobacter pyroli. MICs were determined by the agar dilution method. The stock culture (-80° C.) of HP NCTC 11637 was thawed and cultured on tripticase soy agar supplemented with 5% sheep blood at 37° C. in an atmosphere of 5% O2, 10% CO2, and 85% N2. Grown colonies were transferred to the same plate and precultured for 3 days under the same condition. […] An appropriate amount of the colony grown on the plate by preculturing was suspended in Mueller Hinton broth till turbidness was recognizable by naked eyes, thereby yielding a bacterial suspension concentrate containing about 10^7 cfu/ml. […] 10 μl of the bacterial suspension for inoculation (about 10^3 cfu) was dropped by dispenser onto an MIC plate for inoculation and cultured for 7 days under the same condition as that of preculture. Thereafter, it was judged whether there had been bacteria growth or not. […] As the result of the comparison of these plates, when the number of the colony on the plate containing the sample compound was less than 90% with respect to that on the control plate, it was represented by "+". Contrary to this, when there was 90% or more, it was represented by "-".

Compound | inhibition at 10 µM [1] | MIC ([2]; Helicobacter, NCTC11637, 168 h, agar dilution, HP NCTC 11637, 7 days) | AHP: growth class where MIC was 100 μg/ml or more ([2]; MIC 100 μg/ml or more, colony number vs control plate, 250 mM solution of sample compound)
CCN(CC)CCNC(=O)c1cc(OCC=C(C)C)cc(OCC=C(C)C)c1 [Example 14] | 100% |  | 
CCN(CC)CCNC(=O)c1cc(OC/C=C(\C)CCC=C(C)C)ccc1OC/C=C(\C)CCC=C(C)C [Example 16] | 100% |  | 
CC(C)=CCC/C(C)=C/COc1ccc(OC/C=C(\C)CCC=C(C)C)c(C(=O)NCCN(C(C)C)C(C)C)c1 [Example 17] | 100% | < 3.13 µg/mL | 
CCN(CC=C(C)C)c1ccc(C(=O)NCCN(C(C)C)C(C)C)cc1 [Example 28] | 27.3% |  | + (the number of the colony on the plate containing the sample compound was less than 90% with respect to that on the control plate)
CCN(CC)CCNC(=O)c1cc(OC)c(OC/C=C(\C)CCC=C(C)C)c(OC)c1 [Example 37] | 99.3% |  | 
CCN(CC)CCNC(=O)c1cc(OC)c(OC/C=C(/C)CCC=C(C)C)c(OC)c1 [Example 38] | 99.8% |  | 
COc1cc(C(=O)NCCN(C)C)cc(OC/C=C(\C)CCC=C(C)C)c1OC [Example 42] | 98.6% |  | 
